Measured values as given in US20160158376A1 (priority 2013, published 2016).
Like-named read-outs stand apart in the source and are kept apart here.

How the values were obtained:
Candida albicans = test: Pharmacodynamic assay, immunodepleted mice infected with Candida albicans; type: in vivo; settings: for Number of animal death: mice (20 per group), tail vein, day 7
Text: Method: Mice whose immunity was depleted by conventional method (white cell count≦100) were infected with Candida albicans, and randomly divided into eight groups, 20 per group. Mice received the treatment outlined in the following table by injection through the tail vein. […] Continuously monitoring animal survival for seven days, and counting the number of dead mice on day 7.

[1] = rat, cited from earlier work
[2] = mouse; Proffitt et al. 1991; cited from earlier work
[3] = cited from earlier work
[4] = Solubility assay of the polyconjugate; type: physicochemical; settings: water, room temperature (22˜25° C.), as active drug

| Compound | Number of animal death (Candida albicans; 1 mg/kg as amphotericin B) [dead] | Number of animal death (Candida albicans; 2 mg/kg as amphotericin B) [dead] | 50% effective dose (Candida albicans; mice infected with Candida albicans, survival at day 7, as amphotericin B) | LD50 ([1]; intravenous, Pfizer material safety data sheet) [mg/kg] | LD50 ([1]; Proffitt et al. 1991) [mg/kg] | LD50 [2] [mg/kg] | solubility in water [3] | solubility (amount of the soluble active drug) [4] [%] | Number of animal death (Candida albicans; 0.25 mg/kg as amphotericin B) [dead] | Number of animal death (Candida albicans; 0.5 mg/kg as amphotericin B) [dead] |
| --- | --- | --- | --- | --- | --- | --- | --- | --- | --- | --- |
| CC1O[C@@H](O[C@H]2/C=C/C=C/C=C/C=C/C=C/C=C/C=C/[C@H](C)[C@@H](O)[C@@H](C)[C@H](C)OC(=O)C[C@H](O)C[C@H](O)CC[C@@H](O)[C@H](O)C[C@H](O)C[C@]3(O)C[C@H](O)[C@@H](C(=O)O)[C@H](C2)O3)C(O)C(N)[C@@H]1O (stereo partly drawn) [amphotericin B] | 10 | 3 | about 1 mg/kg | 1.6 | 1.6 | 2.3 | insoluble | – | – | – |
| amphotericin B-hydroxyethyl starch polyconjugate [Preparation 22] | – | – | – | – | – | – | – | 0.026 | – | – |
| poly-aspartic acid-amphotericin B polyconjugate [Preparation 1] | 0 | 0 | – | – | – | – | – | – | 5 | 0 |
